Legend:
Test in all cases: relative viability (nuclei count vs DMSO), 5 days (fraction); higher = more cells survive
Mirin + AZD7762 = compound: N=C1NC(=O)/C(=C/c2ccc(O)cc2)S1 [Mirin] + NC(=O)Nc1cc(-c2cccc(F)c2)sc1C(=O)N[C@H]1CCCNC1 [AZD7762] (partner 0.2 µM)
Method in brief: (§1)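 After 5 days of treatment, lung cancer cells in 1536-well plates were fixed and stained in a single step (final 0.05% Triton X-100, 1% formaldehyde, 1 ug/ml Hoechst) and their nuclei counted on 4× images. Treatment had been applied by pin tool the day after seeding as one drug alone or as a fixed anchor-drug dose with five library-drug doses (not always all listed) in √10 steps. Relative viability is the nuclei count of treated wells divided by that of vehicle wells, and values are medians of duplicate plates.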

Mirin + Navitoclax = compound: N=C1NC(=O)/C(=C/c2ccc(O)cc2)S1 [Mirin] + CC1(C)CCC(c2ccc(Cl)cc2)=C(CN2CCN(c3ccc(C(=O)NS(=O)(=O)c4ccc(N[C@H](CCN5CCOCC5)CSc5ccccc5)c(S(=O)(=O)C(F)(F)F)c4)cc3)CC2)C1 [Navitoclax] (partner 0.5 µM)
Method in brief: as §1

[1] = compound: CCn1c(-c2nonc2N)nc2cnc(Oc3cccc(NC(=O)c4ccc(OCCN5CCOCC5)cc4)c3)cc21 + Cc1cc(Nc2cc(N3CCN(C)CC3)nc(Sc3ccc(NC(=O)C4CC4)cc3)n2)n[nH]1 [Tozasertib] (partner 0.1 µM)
Method in brief: as §1

[2] = compound: CCC1=CN=CN=C1N2CCN(CC2)CC3=NC4=C(N3)C=C(C=C4)C(F)(F)F + CC(=O)c1c(C)c2cnc(Nc3ccc(N4CCNCC4)cn3)nc2n(C2CCCC2)c1=O [Palbociclib] (partner 0.5 µM)
Method in brief: as §1

Row | Cell Line | relative viability (Mirin + AZD7762; first compound 0.25 µM) | relative viability (Mirin + AZD7762; first compound 0.7906 µM) | relative viability (Mirin + AZD7762; first compound 2.5 µM) | relative viability (Mirin + AZD7762; first compound 7.906 µM) | relative viability (Mirin + AZD7762; first compound 25 µM) | relative viability (Mirin + Navitoclax; first compound 0.25 µM) | relative viability (Mirin + Navitoclax; first compound 0.7906 µM) | relative viability (Mirin + Navitoclax; first compound 2.5 µM) | relative viability (Mirin + Navitoclax; first compound 7.906 µM) | relative viability (Mirin + Navitoclax; first compound 25 µM) | relative viability ([1]; first compound 0.04 µM) | relative viability ([1]; first compound 0.1265 µM) | relative viability ([1]; first compound 0.4 µM) | relative viability ([1]; first compound 1.265 µM) | relative viability ([1]; first compound 4 µM) | relative viability ([2]; first compound 0.04 µM) | relative viability ([2]; first compound 0.1265 µM) | relative viability ([2]; first compound 0.4 µM) | relative viability ([2]; first compound 1.265 µM) | relative viability ([2]; first compound 4 µM)
1 | NCI-H1437 | 1.06 | 1.18 | 1.11 | 1.1 | 1.06 | 1.09 | 1.09 | 1.12 | 1.07 | 1.05 | 0.432 | 0.382 | 0.383 | 0.315 | 0.314 | 0.324 | 0.309 | 0.263 | 0.303 | 0.269
2 | NCI-H1651 | 0.424 | 0.598 | 0.532 | 0.308 | 0.477 | 1.01 | 0.97 | 1.01 | 0.826 | 0.836 | 0.556 | 0.733 | 0.718 | 0.528 | 0.334 | 0.558 | 0.562 | 0.513 | 0.463 | 0.532
3 | NCI-H1666 | 0.908 | 1.06 | 0.909 | 0.757 | 0.917 | 0.921 | 0.941 | 1.03 | 0.719 | 0.59 | 0.65 | 0.675 | 0.582 | 0.368 | 0.326 | 0.609 | 0.609 | 0.669 | 0.659 | 0.608
4 | NCI-H1734 | 0.529 | 0.42 | 0.549 | 0.498 | 0.483 | 0.838 | 0.746 | 0.793 | 0.742 | 0.771 | 0.223 | 0.264 | 0.234 | 0.179 | 0.212 | 0.33 | 0.362 | 0.344 | 0.291 | 0.317
5 | NCI-H1755 | 0.503 | 0.431 | 0.472 | 0.383 | 0.453 | 1.03 | 1.11 | 1.03 | 1.09 | 1.14 | 0.527 | 0.58 | 0.534 | 0.416 | 0.349 | 0.475 | 0.478 | 0.45 | 0.437 | 0.49
6 | NCI-H1793 | 0.468 | – | 0.631 | 0.404 | 0.348 | 0.55 | 0.36 | 0.395 | 0.656 | 0.371 | 0.332 | 0.473 | 0.341 | 0.307 | 0.293 | 0.248 | 0.294 | 0.29 | 0.269 | 0.279
7 | NCI-H1915 | 0.674 | 0.726 | 0.712 | 0.59 | 0.745 | 0.775 | – | 0.76 | 0.743 | 0.866 | 0.499 | 0.457 | 0.417 | 0.396 | 0.406 | 0.478 | 0.525 | 0.515 | 0.451 | 0.522
8 | NCI-H1944 | 0.555 | 0.569 | 0.537 | 0.381 | 0.381 | 1.03 | – | 1.07 | 1.08 | 0.861 | 0.248 | 0.279 | 0.273 | 0.228 | 0.213 | 0.399 | 0.358 | 0.298 | 0.309 | 0.303
9 | NCI-H1975 | 0.699 | 0.91 | 0.689 | 0.729 | 0.725 | 1.05 | 1.07 | 1.11 | 1.14 | 0.994 | 0.661 | 0.549 | 0.491 | 0.121 | 0.0969 | 0.62 | 0.479 | 0.568 | 0.461 | 0.577
10 | NCI-H1993 | 0.897 | 0.628 | 0.679 | 0.808 | 0.971 | 1.03 | 1.02 | 0.913 | 0.932 | 0.749 | 0.634 | 0.705 | 0.502 | 0.501 | 0.455 | 0.661 | 0.586 | 0.622 | 0.586 | 0.654
11 | NCI-H2085 | 0.929 | 1.11 | 0.979 | 1.02 | 0.883 | 0.978 | 1.17 | 1.25 | 1.12 | 1.09 | 0.961 | 0.8 | 0.733 | 0.633 | 0.538 | 0.371 | 0.398 | 0.473 | 0.488 | 0.442
12 | NCI-H2087 | 1.31 | 1.59 | 1.45 | 1.3 | 1.75 | 1.01 | 1.21 | 0.944 | 1.27 | 1.03 | 0.252 | 0.243 | 0.218 | 0.152 | 0.142 | 0.264 | 0.235 | 0.242 | 0.184 | 0.201
13 | NCI-H2126 | 1.11 | 1.03 | 1.05 | 1.11 | 0.951 | 0.811 | 0.81 | 0.819 | 0.852 | 0.85 | 0.898 | 0.849 | 0.861 | – | 0.378 | 0.365 | 0.333 | 0.376 | 0.354 | 0.369
14 | NCI-H2170 | 0.926 | 0.752 | 0.823 | 0.849 | 0.848 | 0.698 | 0.51 | 0.659 | 0.521 | 0.375 | 0.743 | 0.651 | 0.786 | 0.553 | 0.515 | 0.397 | 0.402 | 0.375 | 0.385 | 0.386
15 | NCI-H2347 | 0.946 | 0.786 | 0.861 | 0.669 | 0.704 | 0.8 | 0.784 | 0.812 | 0.825 | 0.893 | 0.634 | 0.637 | 0.674 | 0.45 | 0.395 | 0.386 | 0.396 | 0.424 | 0.368 | 0.422
16 | NCI-H2405 | 0.747 | – | 0.798 | 0.734 | 0.599 | 0.812 | 0.97 | 0.742 | 0.641 | 0.73 | 0.874 | 0.794 | 0.345 | 0.224 | 0.24 | 0.578 | 0.53 | 0.513 | – | 0.594

Reference: the supplement of paper PMC10307832
